Reference: patent US20150342954A1, “2-BENZYL, 3-(PYRIMIDIN-2-YL) SUBSTITUTED PYRAZOLES USEFUL AS SGC STIMULATORS” (IRONWOOD PHARMACEUTICALS, INC., priority 2011, published 2015)
Read-outs that look alike come from different tables or passages of the source.

Experiments:
[1] = molecular target: T1, soluble guanylate cyclase (sGC) (Homo sapiens, UniProt Q02108+Q02153); assay: sGC-HEK-cGMP assay (run with SNP incubation); type: cell-based; conditions: for Emax: 10 μM SNP, 100% = 30 μM BAY 41-2272 with 10 μM SNP, read-out: HEK assay Emax-unconstrained (Percent); for HEK MEC-10: concentration that would elicit 10% of the Emax in the presence of 10 μM SNP; for EC50: in the presence of 10 μM SNP
T1 construct: endogenously expressing soluble guanylate cyclase (sGC); endogenous in cells; host or cells: HEK293
T1 sequence (Q02153 1-619): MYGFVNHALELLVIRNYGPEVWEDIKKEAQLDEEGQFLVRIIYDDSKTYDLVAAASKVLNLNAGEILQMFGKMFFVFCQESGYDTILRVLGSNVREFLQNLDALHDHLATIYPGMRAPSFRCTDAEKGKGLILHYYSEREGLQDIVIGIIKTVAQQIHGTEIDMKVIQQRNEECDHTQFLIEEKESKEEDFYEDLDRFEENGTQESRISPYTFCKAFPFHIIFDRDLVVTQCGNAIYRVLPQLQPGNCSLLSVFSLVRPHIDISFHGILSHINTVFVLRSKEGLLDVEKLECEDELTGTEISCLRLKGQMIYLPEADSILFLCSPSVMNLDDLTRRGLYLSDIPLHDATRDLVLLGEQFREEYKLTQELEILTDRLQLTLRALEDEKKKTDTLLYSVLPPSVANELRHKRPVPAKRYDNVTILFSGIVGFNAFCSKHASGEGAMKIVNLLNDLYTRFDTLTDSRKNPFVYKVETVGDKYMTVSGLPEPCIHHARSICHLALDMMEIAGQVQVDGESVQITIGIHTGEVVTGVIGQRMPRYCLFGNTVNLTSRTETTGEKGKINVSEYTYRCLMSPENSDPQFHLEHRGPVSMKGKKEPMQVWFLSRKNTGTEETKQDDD
T1 sequence (Q02108 1-690): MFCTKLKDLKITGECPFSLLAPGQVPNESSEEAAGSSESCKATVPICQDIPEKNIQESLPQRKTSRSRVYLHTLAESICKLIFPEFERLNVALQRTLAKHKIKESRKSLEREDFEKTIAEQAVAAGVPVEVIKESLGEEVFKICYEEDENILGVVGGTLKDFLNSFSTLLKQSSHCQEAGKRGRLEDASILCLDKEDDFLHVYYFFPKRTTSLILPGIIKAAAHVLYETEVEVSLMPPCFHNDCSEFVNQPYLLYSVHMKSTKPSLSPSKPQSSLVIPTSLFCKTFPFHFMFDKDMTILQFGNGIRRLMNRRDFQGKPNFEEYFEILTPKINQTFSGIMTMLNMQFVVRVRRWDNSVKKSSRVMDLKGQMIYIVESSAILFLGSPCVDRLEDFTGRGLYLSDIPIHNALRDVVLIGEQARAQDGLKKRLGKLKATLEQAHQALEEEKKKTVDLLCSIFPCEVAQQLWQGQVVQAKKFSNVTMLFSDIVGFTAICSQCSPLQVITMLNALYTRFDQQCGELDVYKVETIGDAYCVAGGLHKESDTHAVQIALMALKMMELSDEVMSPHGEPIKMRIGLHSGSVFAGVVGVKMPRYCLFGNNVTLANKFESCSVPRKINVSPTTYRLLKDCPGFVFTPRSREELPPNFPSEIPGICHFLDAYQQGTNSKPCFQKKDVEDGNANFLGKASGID
How it was run: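 HEK293 cells with endogenous sGC were pre-treated 15 min at 37 °C with 0.5 mM IBMX, then exposed to test compound plus sodium nitroprusside for 10 min at 37 °C. Cells were lysed in 0.1 M HCl (4 °C, 30 min), and cGMP was quantified by LC/MS against a standard curve. EC50 values came from concentration-response curves.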

Thoracic aortic rings = assay: Alternative thoracic aortic rings assay (Example 5; original resting tension as 100% inhibition); conditions: rat thoracic aortic rings contracted with phenylephrine; for Aortic Ring Percent Relaxation at 1 μM: compound at 1 μM; for Aortic Ring Percent Relaxation at 3 μM: compound at 3 μM; for Aortic Ring Percent Relaxation at 10 μM: compound at 10 μM; for EC50: read-out: Aortic Ring EC50
Method: Thoracic aortic rings were dissected from anesthetized (isoflurane) male Sprague-Dawley rats weighing 275-299 g. Tissues were immediately transferred to ice-cold Krebs-Henseleit solution, which had been aerated with 95% 02 and 5% CO2 for 30 minutes. Following removal of connective tissue, aortic sections were cut into 4 rings (˜2 mm each) and suspended on 2 L-shaped hooks, with one hook fixed at the bottom of the tissue bath (Schuler Organ Bath, Harvard Apparatus) and the other connected to a force transducer (F30 Force Transducer, Harvard Apparatus). Baths contained Krebs Henseleit solution (10 mL) heated to 37° C. and aerated with 95% 02 and 5% CO2. Rings were brought to an initial tension of 0.3-0.5 g and gradually raised to a resting tension of 1.0 g over 60 minutes. Rings were rinsed with Krebs Henseleit solution (heated to 37° C. and aerated with 95% 02 and 5% CO2) at 15 minute intervals until a stable baseline was obtained. Rings were considered to be stable after a resting tension of 1.0 g was maintained (for approximately 10 minutes) without need for adjustment. Rings were then contracted with 100 ng/mL phenylephrine by adding 100 μL of a 10 μg/mL phenylephrine stock solution. Tissues achieving a stable contraction were then treated in a cumulative, dose dependent manner with test compounds prepared in dimethylsulfoxide (DMSO). In some cases, tissues were rinsed three times over a 5 minute period with Krebs-Heinseleit's solution (heated to 37° C. and aerated with 95% 02 and 5% CO2), allowed to stabilize at baseline, and then used for characterization of other test articles or DMSO effects. All data were collected using the HSE-ACAD software provided by Harvard Apparatus. […] EC50 values were calculated from concentration-response curves generated with GraphPad Prism Software.
Biological Activity Measurement by the Thoracic Aortic Rings Assay
The biological data for some of a compound of Table I, in comparison with the known compound, BAY 41-2272, as the reference compound, determined by the thoracic aorta ring assay of Example 5 are presented in Table 6 below.

[2] = molecular target: T2, Human soluble guanylate cyclase enzyme (hsGC) (Homo sapiens, UniProt Q02108+Q02153); assay: Purified human sGC enzyme synergy assay in the presence of 1 μM sodium nitroprusside (SNP); type: biochemical; conditions: compound at 30 μM, presence of 1 μM SNP
T2 construct: purchased Enzo Inc. ALX-201-177
T2 sequence (Q02153 1-619): T1 sequence (Q02153 1-619)
T2 sequence (Q02108 1-690): T1 sequence (Q02108 1-690)
How it was run: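 Purified hsGC (5 ng) incubated 30 min at 37 °C with compound (10 or 30 μM final) in Tris pH 8.0, 300 μM GTP, 1 mM IBMX, 2 mM MgCl2, with or without 1 μM SNP; stopped with cold methanol. cGMP quantified against standard curve; specific activity expressed as fold-change over DMSO control.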

[3] = molecular target: T2, Human soluble guanylate cyclase enzyme (hsGC); assay: Purified human sGC enzyme activity assay (without SNP); type: biochemical; conditions: compound at 30 μM, absence of SNP, fold over DMSO control
How it was run: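 Purified human sGC (5 ng) in 0.1 M Tris pH 8.0, 2 mM DTT, 2 mM MgCl2, 300 μM GTP, 1 mM IBMX, with compound at 10 or 30 μM final, 30 min at 37° C.; methanol-stopped. cGMP quantified against a standard curve; specific activity expressed as fold-change over DMSO control.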

[4] = Table 3A, top of concentration-response curve not fitted to 100%
[5] = Table 3D, read-out: HEK assay EC50
[6] = top of concentration-response curve not fitted to 100%, Table 3D, read-out: HEK assay EC50-unconstrained
[7] = Table 3B, top of concentration-response curve not fitted to 100%
[8] = top of concentration-response curve not fitted to 100%, Table 3E, read-out: HEK assay EC50-unconstrained
[9] = Table 3C, top of concentration-response curve not fitted to 100%
[10] = Table 3F, read-out: HEK assay EC50
[11] = top of concentration-response curve not fitted to 100%, Table 3F, read-out: HEK assay EC50-unconstrained

Structure (SMILES) | Enzyme Activity (increase at 30 μM with SNP) ([2]; Table 5C) | Emax [1, 9] | HEK MEC-10 ([1]; Table 3F) | EC50 [1, 10] | EC50 [1, 11] | Enzyme Activity (increase at 30 μM without SNP) ([3]; Table 5C) | further results
Oc1nc(-c2cc(-c3ccon3)n(Cc3cccc(F)c3F)n2)ncc1F [Compound 1] |  |  |  |  |  |  | Emax [1, 4]: 60 to 80%; HEK MEC-10 ([1]; Table 3D): B (0.01 to <0.1 μM); EC50 [1, 5]: < 20 µM; EC50 [1, 6]: 0.01 to 0.5 µM; Aortic Ring Percent Relaxation at 1 μM (Thoracic aortic rings): F (80 to <100%); Aortic Ring Percent Relaxation at 3 μM (Thoracic aortic rings): G (100 to <120%); Aortic Ring Percent Relaxation at 10 μM (Thoracic aortic rings): G (100 to <120%); EC50 (Thoracic aortic rings): < 2 µM
CC1(C(=O)Nc2cnc(-c3cc(-c4ccon4)n(Cc4cccc(F)c4F)n3)nc2N)CC1 [Compound 10] |  |  |  |  |  |  | Emax [1, 4]: 100 to 120%; HEK MEC-10 ([1]; Table 3D): A (0.001 to <0.01 μM); EC50 [1, 5]: < 20 µM; EC50 [1, 6]: 0.01 to 0.5 µM; Aortic Ring Percent Relaxation at 1 μM (Thoracic aortic rings): G (100 to <120%); Aortic Ring Percent Relaxation at 3 μM (Thoracic aortic rings): G (100 to <120%); Aortic Ring Percent Relaxation at 10 μM (Thoracic aortic rings): G (100 to <120%); EC50 (Thoracic aortic rings): < 2 µM
Oc1nc(-c2cc(-c3ccoc3)n(Cc3ccccc3F)n2)ncc1F [Compound 87] |  |  |  |  |  |  | Enzyme Activity (increase at 30 μM with SNP) ([2]; Table 5B): E (20 to 30 fold increase); Emax [1, 7]: 40 to 60%; EC50 [1, 8]: 0.01 to 0.5 µM; Enzyme Activity (increase at 30 μM without SNP) ([3]; Table 5B): D (10 or <20 fold increase)
Nc1nc(-c2cc(-c3ccon3)n(Cc3cccc(F)c3F)n2)ncc1NC(=O)c1ccc(F)cc1 [Compound 88] |  |  |  |  |  |  | Enzyme Activity (increase at 30 μM with SNP) ([2]; Table 5B): E (20 to 30 fold increase); Emax [1, 7]: 80 to 100%; EC50 [1, 8]: 1 to 5 µM; Enzyme Activity (increase at 30 μM without SNP) ([3]; Table 5B): F (>30 fold increase)
CC1(C)C(=O)Nc2nc(-c3cc(-c4ccon4)n(Cc4ccccc4F)n3)nc(N)c21 [Compound 99, 4-amino-2-(1-(2-fluorobenzyl)-5-(isoxazol-3-yl)-1H-pyrazol-3-yl)-5,5-dimethyl-5H-pyrrolo[2,3-d]pyrimidin-6(7H)-one] | D (10 or <20 fold increase) | 40 to 60% | B (0.01 to <0.1 μM) | < 20 µM | 0.01 to 0.5 µM | D (10 or <20 fold increase) | 
CC1(C)C(=O)Nc2nc(-c3cc(-c4ccon4)n(Cc4ccccc4F)n3)ncc21 [Compound 100] | F (>30 fold increase) | 60 to 80% | C (0.1 to <1 μM) | < 20 µM | 0.5 to 1 µM | D (10 or <20 fold increase) | 
Cn1cnc2nc(-c3cc(-c4ccon4)n(Cc4ccccc4F)n3)ncc21 [Compound 109] | B (2 to <5 fold increase) | 40 to 60% | D (1 to <10 μM) | 40 to 60 µM | 10 to 50 µM | B (2 to <5 fold increase) | 
Fc1ccccc1Cn1nc(-c2ncc3[nH]cnc3n2)cc1-c1ccon1 [Compound 110] | D (10 or <20 fold increase) | 80 to 100% | C (0.1 to <1 μM) | < 20 µM | 1 to 5 µM | D (10 or <20 fold increase) | 
Cn1[nH]c2nc(-c3cc(-c4ccon4)n(Cc4ccccc4F)n3)ncc2c1=O [Compound 112] | B (2 to <5 fold increase) | 60 to 80% | E (10 to 50 μM) | 60 to 100 µM | 10 to 50 µM | A (no increase to <2 fold increase) | 
Fc1ccccc1Cn1nc(-c2ncc3cn[nH]c3n2)cc1-c1ccon1 [Compound 113] | D (10 or <20 fold increase) | 20 to 40% | C (0.1 to <1 μM) | 20 to 40 µM | 0.01 to 0.5 µM | C (5 to <10 fold increase) | 
CC(=O)Nc1n[nH]c2nc(-c3cc(-c4ccon4)n(Cc4ccccc4F)n3)ncc12 [Compound 114] | E (20 to 30 fold increase) | 60 to 80% | A (0.001 to <0.01 μM) | < 20 µM | 0.01 to 0.5 µM | D (10 or <20 fold increase) | 
NC1=NNC2NC(c3cc(-c4ccon4)n(Cc4ccccc4F)n3)=NC=C12 (stereo not drawn) [Compound 118] | E (20 to 30 fold increase) | 80 to 100% | B (0.01 to <0.1 μM) | < 20 µM | 0.5 to 1 µM | C (5 to <10 fold increase) | 
